Test results from US8309767B2, “2-aminobenzoyl derivatives” (Neurim Pharmaceuticals (1991) Ltd., priority 2003, dated 2012).

Key:
MPTP-treated mice = assay: Anti-Parkinsonian activity: motor activity of MPTP-treated mice with/without a subthreshold dose of L-Dopa; assay type: in vivo, C57 BL/6 mice; settings: for LOCOMOTION / REARING / TOTAL ACTIVITY: mean ± SD
Procedure: Evaluation of the anti-Parkinsonian activity using MPTP-treated mice with/without a subthreshold dose of L-Dopa
Animals: six month old male C57 BL/6 mice, weighing 22-25 g were used. Following arrival at the laboratory, the mice were allowed to acclimatise for two weeks in a room with controlled temperature (21±1° C.), and a constant light-dark schedule (12 hr on/12 hr off, lights on between 06.00 and 18.00 hrs). Free access to food and water was maintained throughout. They were housed in groups of 12 animals and tested only during the hours of light (08.00-15.00 hrs). All testing was performed in a normally lighted room. Each test chamber (i.e. activity test cage) was placed in a soundproofed wooden box with 12 cm thick walls and front panels and had dimmed lighting.
Behavioral measurements and apparatus: An automated device, consisting of macrolon rodent test cages (40×25×15 cm) each placed within two series of infra-red beams (at two different heights, one low and one high, 2 and 8 cm, respectively, above the surface of the sawdust, 1 cm deep), was used to measure spontaneous and/or drug-induced motor activity of MPTP and control mice. The following parameters were measured: LOCOMOTION was measured by the low grid of infrared beams. Counts were registered only when the mouse in the horizontal plane, ambulating around the test-cage. REARING was registered throughout the time when at least one high level beam was interrupted, i.e. the number of counts registered was proportional to the amount of time spent rearing. TOTAL ACTIVITY was measured by a sensor (a pick-up similar to a gramophone needle, mounted on a lever with a counterweight) with which the test cage was constantly in contact. The sensor registered all types of vibration received from the test cage, such as those produced both by locomotion and rearing as well as shaking, tremors, scratching and grooming.
Behavioral measurements (locomotion, rearing and total activity): Twelve days after MPTP injections (2×40 mg/kg, s.c., 24 hr interval), the mice were injected i.p with 2-(2-aminobenzoyl)-N-(2,4-dinitrophenyl)ethylamine (0.3, 1, 3, 10 mg/kg) or vehicle (10% DMSO, 1% CMC) and immediately thereafter placed in the activity test chambers and their motor behaviour were monitored for 60 min. After 60 min, the mice were injected with 5 mg/kg L-Dopa (s.c) and then replaced in the test chamber and activity measurements maintained for a further 240 min. Each dose was separated by two days, starting from the lowest dose.
Table 1 presents the mean (± standard deviations) locomotion, rearing and total activity counts of MPTP-treated and control mice administered either 2-(2-aminobenzoyl)-N-(2,4-dinitrophenyl)ethylamine or vehicle administered with a subthreshold dose of L-Dopa. 1 % level of significance is represented by an asterisk (Tukey HSD test).

NMDA receptors = assay: Electrophysiological characterisation of NMDA-activated currents in freshly isolated hippocampal neurones (whole-cell patch clamp); assay type: cell-based; settings: rat hippocampal neurones
Procedure: Electrophysiological characterisation of NMDA-activated currents in freshly isolated hippocampal neurones of rat.
Isolation of hippocampal neurons: Wistar rats (12-14 days) were decapitated without anaesthesia and the hippocampus was removed. It was manually cut into slices (0.2-0.4 mm), in a solution containing (mM): 150 NaCl; 5 KCl; 1.25 NaH2PO4; 2 CaCl2; 2 MgCl2; 26 NaHCO3; 20 glucose. Slices were preincubated in this solution for 30 min at room temperature. The enzymatic treatment proceeded in the same solution with lower Ca2+ concentration (0.5 mm) containing 0.4 mg/ml protease from aspergillus oryzae. The incubation in the enzyme solution proceeded at 32° C. within 10 min. […]
Current recording and data analysis: The drug-containing solutions were applied by the fast “concentration clamp” method using “jumping table” set-up (Pharma Robot, Kiev). The currents were recorded with patch clamp technique in the whole-cell configuration. […]
NMDA-activated currents: The currents were filtered at 3 kHz (three-pole active Bessel filter) digitally sampled at the rate […] for NMDA activated currents. NMDA-induced transmembrane currents were measured in the presence of 10 μM glycine and 300 μM L-aspartate in the control and test solutions. The currents were recorded at holding potential −70 mV. […]

[1] = MPTP mice, 0.3 mg/kg i.p. with subthreshold L-Dopa 5 mg/kg s.c.
[2] = MPTP mice, 1 mg/kg i.p. with subthreshold L-Dopa 5 mg/kg s.c., * 1% significance
[3] = MPTP mice, 3 mg/kg i.p. with subthreshold L-Dopa 5 mg/kg s.c., * 1% significance
[4] = MPTP mice, 10 mg/kg i.p. with subthreshold L-Dopa 5 mg/kg s.c., * 1% significance

SMILES: Nc1ccccc1C(=O)CCNc1ccc([N+](=O)[O-])cc1[N+](=O)[O-] [2-(2-aminobenzoyl)-N-(2,4-dinitrophenyl)ethylamine]
- locomotion, rearing and total activity of MPTP-treated mice (MPTP-treated mice; 1, 3 or 10 mg/kg, compared to the MPTP vehicle group): improved significantly
- LOCOMOTION (MPTP-treated mice; [1]): 273 ± 64 counts
- REARING (MPTP-treated mice; [1]): 290 ± 73 counts
- TOTAL ACTIVITY (MPTP-treated mice; [1]): 5160 ± 1093 counts
- LOCOMOTION (MPTP-treated mice; [2]): 473 ± 108 counts
- REARING (MPTP-treated mice; [2]): 582 ± 145 counts
- TOTAL ACTIVITY (MPTP-treated mice; [2]): 6250 ± 625 counts
- LOCOMOTION (MPTP-treated mice; [3]): 510 ± 107 counts
- REARING (MPTP-treated mice; [3]): 731 ± 110 counts
- TOTAL ACTIVITY (MPTP-treated mice; [3]): 6563 ± 781 counts
- LOCOMOTION (MPTP-treated mice; [4]): 470 ± 110 counts
- REARING (MPTP-treated mice; [4]): 619 ± 102 counts
- TOTAL ACTIVITY (MPTP-treated mice; [4]): 6250 ± 625 counts
- effect on motor behaviour in the first 60-min period before L-Dopa (MPTP-treated mice; MPTP mice, any dose (0.3-10 mg/kg i.p.), compared to MPTP-treated vehicle mice): no effect at any dose
- all three behavioural parameters when administered together with a subthreshold dose of L-Dopa (MPTP-treated mice; MPTP mice, with L-Dopa 5 mg/kg s.c.): improved significantly
- effect on motor variables in vehicle control animals (MPTP-treated mice; vehicle control (non-MPTP) animals): no effects in any variable
- activity on NMDA receptors (NMDA receptors): blocking activity
